In patent US10947271B2, “Antibacterial agents” (THE UNIVERSITY OF QUEENSLAND, priority 2014, dated 2021):

Columns and labels:
Format in all cases: cell-based
Conditions in all cases: 24 h incubation, visual reading
[1] = system: Streptococcus pneumoniae MDR ATCC 700677; experiment: MIC assay, S. pneumoniae MDR ATCC 700677
Method in brief: (§1)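 Twofold broth microdilution in Mueller Hinton broth; compounds tested from 8 μg/ml to 0.003 μg/ml. Mid-log cultures were inoculated at 5×10e5 CFU/mL and incubated 24 h at 37° C. MIC was the lowest concentration with no visible growth.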

[2] = system: Staphylococcus aureus MRSA ATCC 43300; experiment: MIC assay, S. aureus MRSA ATCC 43300
Method in brief: as §1

[3] = system: Enterococcus faecium MDR Van A ATCC 51559; experiment: MIC assay, E. faecium MDR Van A ATCC 51559
Method in brief: as §1

| SMILES | Minimum Inhibitory Concentration (MIC) S. pneumoniae ATCC 700677 [1] | Minimum Inhibitory Concentration (MIC) Staph. aureus ATCC43300 [2] | Minimum Inhibitory Concentration (MIC) E. faecium ATCC51559 [3] |
| --- | --- | --- | --- |
| CCCCCCC(CCCC)C(=O)NCCCC[C@H](NC(=O)C(CCCC)CCCCCC)C(=O)N[C@@H](CCCCN)C(=O)N[C@@H](CCCCN)C(=O)N[C@@H](CCCCNC(=O)[C@H]1NC(=O)[C@H]2NC(=O)[C@H](NC(=O)[C@@H]3NC(=O)[C@H](CC(N)=O)NC(=O)[C@H](NC(=O)[C@@H](CC(C)C)NC)[C@H](O)c4ccc(c(Cl)c4)Oc4cc3cc(c4O[C@@H]3O[C@H](CO)[C@@H](O)[C@H](O)[C@H]3O[C@H]3C[C@](C)(N)[C@H](O)[C@H](C)O3)Oc3ccc(cc3Cl)[C@H]2O)c2ccc(O)c(c2)-c2c(O)cc(O)cc21)C(=O)NC (stereo partly drawn) [MCC_000773] | xxxx (xxxx = 0.01-<0.1) | xxxx (xxxx = 0.01-<0.1) | xxx (xxx = 0.1-<1) |
| CCCCCCCCCCCCCC(=O)N[C@@H](CCCCN)C(=O)N[C@@H](CCCCN)C(=O)NCCCNC(=O)[C@H]1NC(=O)[C@H]2NC(=O)[C@H](NC(=O)[C@@H]3NC(=O)[C@H](CC(N)=O)NC(=O)[C@H](NC(=O)[C@@H](CC(C)C)NC)[C@H](O)c4ccc(c(Cl)c4)Oc4cc3cc(c4O[C@@H]3O[C@H](CO)[C@@H](O)[C@H](O)[C@H]3O[C@H]3C[C@](C)(N)[C@H](O)[C@H](C)O3)Oc3ccc(cc3Cl)[C@H]2O)c2ccc(O)c(c2)-c2c(O)cc(O)cc21 [MCC_000345] | xxxxx (xxxxx = <0.01) | xxxxx (xxxxx = <0.01) | xxxx (xxxx = 0.01-<0.1) |
| CNC(=O)C(CCCCNC(=O)C1NC(=O)C2NC(=O)C(NC(=O)C3NC(=O)C(CC(N)=O)NC(=O)C(NC(=O)C(CC(C)C)NC)C(O)c4ccc(c(Cl)c4)Oc4cc3cc(c4OC3OC(CO)C(O)C(O)C3OC3CC(C)(N)C(O)C(C)O3)Oc3ccc(cc3Cl)C2O)c2ccc(O)c(c2)-c2c(O)cc(O)cc21)NC(=O)C(CCCCN)NC(=O)C(CCCCN)NC(=O)CCCOc1ccccc1 (stereo not drawn) [MCC_000505] | xx (xx = 1-4) | xxx (xxx = 0.1-<1) | x (x = >4) |
| CNC(=O)[C@H](CCCCNC(=O)[C@H]1NC(=O)[C@H]2NC(=O)[C@H](NC(=O)[C@@H]3NC(=O)[C@H](CC(N)=O)NC(=O)[C@H](NC(=O)[C@@H](CC(C)C)NC)[C@H](O)c4ccc(c(Cl)c4)Oc4cc3cc(c4O[C@@H]3O[C@H](CO)[C@@H](O)[C@H](O)[C@H]3O[C@H]3C[C@](C)(N)[C@H](O)[C@H](C)O3)Oc3ccc(cc3Cl)[C@H]2O)c2ccc(O)c(c2)-c2c(O)cc(O)cc21)NC(=O)[C@@H](CCCCN)NC(=O)[C@@H](CCCCN)NC(=O)[C@H](CCCCNC(=O)c1ccc(Oc2ccccc2)cc1)NC(=O)c1ccc(Oc2ccccc2)cc1 [MCC_000766] | xxxxx (xxxxx = <0.01) | xxxxx (xxxxx = <0.01) | xx (xx = 1-4) |

Second part, the compound after the results:

| Minimum Inhibitory Concentration (MIC) S. pneumoniae ATCC 700677 [1] | Minimum Inhibitory Concentration (MIC) Staph. aureus ATCC43300 [2] | Minimum Inhibitory Concentration (MIC) E. faecium ATCC51559 [3] | SMILES |
| --- | --- | --- | --- |
| xxxx (xxxx = 0.01-<0.1) | xxxx (xxxx = 0.01-<0.1) | xx (xx = 1-4) | CCCCCOc1ccc(C(=O)NC(CCCCN)C(=O)NC(CCCCN)C(=O)NCCCNC(=O)C2NC(=O)C3NC(=O)C(NC(=O)C4NC(=O)C(CC(N)=O)NC(=O)C(NC(=O)C(CC(C)C)NC)C(O)c5ccc(c(Cl)c5)Oc5cc4cc(c5OC4OC(CO)C(O)C(O)C4OC4CC(C)(N)C(O)C(C)O4)Oc4ccc(cc4Cl)C3O)c3ccc(O)c(c3)-c3c(O)cc(O)cc32)cc1 (stereo not drawn) [MCC_005361] |
| xxxx (xxxx = 0.01-<0.1) | xxxxx (xxxxx = <0.01) | xx (xx = 1-4) | CCCCCCCCCCC(=O)NC(CCCCN(C)C)C(=O)NCCCNC(=O)C1NC(=O)C2NC(=O)C(NC(=O)C3NC(=O)C(CC(N)=O)NC(=O)C(NC(=O)C(CC(C)C)NC)C(O)c4ccc(c(Cl)c4)Oc4cc3cc(c4OC3OC(CO)C(O)C(O)C3OC3CC(C)(N)C(O)C(C)O3)Oc3ccc(cc3Cl)C2O)c2ccc(O)c(c2)-c2c(O)cc(O)cc21 (stereo not drawn) [MCC_007340] |
